Test results taken from PubChem BioAssay (NCI).
Where “and” joins values, the source holds several entries; their conditions need not be identical. Identical values can stand only once.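 Interpolation was linear, between the two tested concentrations surrounding the appropriate level; five concentrations were tested over 48 hours in 96-well plates. Here, GI50 denotes the concentration required for 50% inhibition of growth. At the TGI there is no net growth.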

What was measured:
Test in all cases: growth of human tumour cells (NCI), 48 h
NCI/ADR-RES ovarian = system: NCI/ADR-RES ovarian
HCT-116 colon = system: HCT-116 colon
KM12 colon = system: KM12 colon
LOX IMVI melanoma = system: LOX IMVI melanoma
CCRF-CEM leukemia = system: CCRF-CEM leukemia
SF-268 CNS = system: SF-268 CNS
EKVX NSCLC = system: EKVX NSCLC
DU-145 prostate = system: DU-145 prostate
SK-MEL-28 melanoma = system: SK-MEL-28 melanoma
UACC-257 melanoma = system: UACC-257 melanoma

Row | Structure (SMILES) | GI50 (NCI/ADR-RES ovarian) | TGI (NCI/ADR-RES ovarian) | GI50 (HCT-116 colon) | TGI (HCT-116 colon) | GI50 (KM12 colon) | TGI (KM12 colon) | GI50 (LOX IMVI melanoma) | TGI (LOX IMVI melanoma) | GI50 (CCRF-CEM leukemia) | TGI (CCRF-CEM leukemia) | GI50 (SF-268 CNS) | TGI (SF-268 CNS) | GI50 (EKVX NSCLC) | TGI (EKVX NSCLC) | GI50 (DU-145 prostate) | TGI (DU-145 prostate) | GI50 (SK-MEL-28 melanoma) | TGI (SK-MEL-28 melanoma) | GI50 (UACC-257 melanoma) | TGI (UACC-257 melanoma)
1 | COc1ccc(NC(=O)O[C@H]2[C@H](O[C@H]3[C@@H](O)COC(O[C@H]4C[C@H]5[C@@H]6CC=C7C[C@@H](O)CC[C@]7(C)[C@H]6CC[C@]5(C)[C@H]4[C@H](C)C(=O)CCC(C)C)[C@@H]3OC(C)=O)OC[C@@H](O)[C@@H]2O)cc1 (stereo partly specified) | 3.78 µM | > 100 µM | < 0.01 µM | 14.4 µM | 0.0323 µM | 16.4 µM | < 0.01 µM | < 0.01 µM | < 0.01 µM | 2.25 µM | < 0.01 µM | 2.76 µM | 0.349 µM | 11.2 µM | 0.367 µM | 34.7 µM | < 0.01 µM | 0.0127 µM | – | –
2 | N#Cc1c(Oc2ccc(F)c(NC(=O)Cc3cccc(C(F)(F)F)c3)c2)ccc2nc(NC(=O)C3CC3)sc12 | 1.28 µM | > 100 µM | 0.251 µM | > 100 µM | 0.765 µM | > 100 µM | – | – | 0.622 µM | > 100 µM | 1.35 µM | > 100 µM | – | – | 2.34 µM | > 100 µM | 0.0292 µM | > 100 µM | 0.0253 µM | 0.203 µM
3 | COc1ccc(-c2cncn2-c2cc(OC)c(OC)c(OC)c2)cc1F | 0.0108 µM | > 100 µM | < 0.0158 µM | 15.8 µM | < 0.01 µM | > 49.8 µM | < 0.01 µM | 64.9 µM | < 0.0296 µM | > 100 µM | 0.0548 µM | > 100 µM | 0.153 µM | > 100 µM | < 0.0342 µM | > 100 µM | 0.0359 µM | > 100 µM | – | –
4 | O=C(NO)c1cnc(N2CCN(S(=O)(=O)c3ccc4ccccc4c3)CC2)nc1 | 0.0324 µM | – | 0.03 µM | 10.1 µM | 0.0759 µM | 0.412 µM | – | – | 0.0379 µM | > 64.7 µM | 0.169 µM | 1.3 µM | – | – | 0.0445 µM | 2.23 µM | 0.062 µM | 1.15 µM | 0.0249 µM | 0.188 µM
5 | CC1(C)CC2CC(C)(CN2c2ncnc3ccc(Br)cc23)C1 (stereo unspecified) | 12.8 µM | 25.4 µM | – | – | 11.1 µM | 26.5 µM | 13.7 µM | 26.5 µM | 6.61 µM | 39.8 µM | 17.9 µM | 37.9 µM | – | – | 12.4 µM | 24.9 µM | 13.9 µM | 28 µM | – | –
6 | CC(=O)N[C@@H](Cc1ccc(OP(=O)(O)O)cc1)C(=O)N[C@H]1CCC(=O)N2CCC[C@@H](C(=O)NCc3ccc(O)cc3)N2C1=O | > 25 µM | > 25 µM | > 25 µM | > 25 µM | > 25 µM | > 25 µM | > 25 µM | > 25 µM | > 25 µM | > 25 µM | > 25 µM | > 25 µM | – | – | > 25 µM | > 25 µM | > 25 µM | > 25 µM | > 25 µM | > 25 µM
7 | O=C1c2ccccc2C(=O)c2sc(Nc3ccc(Cl)c(Cl)c3)nc21 | – | – | – | 7.3 µM | – | 18 µM | – | 4.73 µM | – | 5.15 µM | – | 12.8 µM | – | 29.5 µM | – | 33.2 µM | – | 20.7 µM | – | 8.63 µM
8 | O=C1c2ccccc2C(=O)c2c(NC(=O)c3ccc4c5c(ncnc35)-c3ccccc3C4=O)cccc21 | – | > 100 µM | – | > 100 µM | – | > 100 µM | – | – | – | – | – | > 100 µM | – | > 100 µM | – | > 100 µM | – | > 100 µM | – | > 100 µM
9 | CC(=O)/C=C/C1=C(c2ccsc2)c2ccccc2CC1 | – | – | 22.8 µM | 50.3 µM | 17.2 µM | 33 µM | 17.9 µM | 31.9 µM | 23.6 µM | 47.6 µM | 19.5 µM | 41.1 µM | 35.9 µM | > 100 µM | 40.8 µM | > 100 µM | 49.1 µM | > 100 µM | – | –
10 | CCOC(=O)CNC(=O)C(CSC(=O)N(C)O)NC(=O)CCC(N)C(=O)O (stereo unspecified) | – | – | > 2000 µM | – | > 2000 µM | > 2000 µM | > 2000 µM | – | > 2000 µM | – | > 2000 µM | > 2000 µM | > 2000 µM | > 2000 µM | – | – | > 2000 µM | > 2000 µM | > 2000 µM | > 2000 µM
11 | OC1C2C=CCC1CCC2 (stereo unspecified) | – | – | – | > 100 µM | – | > 100 µM | – | > 100 µM | – | > 100 µM | – | > 100 µM | – | > 100 µM | – | – | – | > 100 µM | – | > 100 µM
12 | COc1cnc2c(c1)C(=O)c1c-2n(CCCN2CCN(CCO)CC2)c(=O)c2cc([N+](=O)[O-])ccc12 | 1.29 µM | 3.86 µM | – | – | 1.74 µM | 4.41 µM | 1.08 µM | 2.51 µM | 0.494 µM | > 100 µM | 1.07 µM | 4.92 µM | 1.8 µM | 4.23 µM | 1.43 µM | 4.42 µM | 2.01 µM | 4.16 µM | 2.26 µM | 6.87 µM
13 | CC(C)[O-].CC(C)[O-].[O-]c1cccc2cccnc12.[O-]c1cccc2cccnc12.[Ti+4] | – | – | 3.24 µM and 3.87 µM | > 100 µM | 21 µM | 50 µM | 74 µM | > 100 µM | 1.77 µM and 3.32 µM | > 100 µM | 6.4 µM and 51.1 µM | > 100 µM | > 100 µM | > 100 µM | – | – | 56.5 µM | > 100 µM | – | > 100 µM
14 | OC(c1ccccc1)c1c(-c2ccccc2)oc(-c2ccccc2)c1C(O)c1ccccc1 (stereo unspecified) | – | 24.9 µM | – | 18.3 µM | – | 18.9 µM | – | 25.2 µM | – | 17.1 µM | – | 25.5 µM | – | 19.6 µM | – | 28.3 µM | – | 27.9 µM | – | –
15 | C=C1CC(C/C=C(\C)CC2CC(=C)C(=O)O2)OC1=O (stereo unspecified) | – | – | – | > 100 µM | – | > 100 µM | – | > 100 µM | – | > 100 µM | – | > 100 µM | – | > 100 µM | – | – | – | > 100 µM | – | > 100 µM
16 | C[C@@H]1CN2[C@H]3[C@@H]1CC[C@]31CCC(=O)O[C@]1(C)[C@@H]1CC[C@H]3CCC=C3[C@@H]12 | > 70 µM | > 70 µM | > 70 µM | > 70 µM | > 70 µM | > 70 µM | > 70 µM | > 70 µM | > 70 µM | > 70 µM | > 70 µM | > 70 µM | > 70 µM | > 70 µM | > 70 µM | > 70 µM | > 70 µM | > 70 µM | – | –
